Results from ChEMBL document CHEMBL5214890 (Eur J Med Chem, 2021).
Activity calls are given as the source filed them. The rule behind the calls is not given here.

Tests used:
Mus musculus [1] = assay: Antidiabetic activity in male […] assessed as improvement in glucose tolerance at 30 nmol/kg, sc administered twice daily for 3 weeks; assay type: functional, organism-based
[2] = Cmax in male Sprague-Dawley rat at 25 nmol/kg, sc administered as single dose and measured after 24 hrs by LC-MS/MS analysis; assay type: ADME, organism-based; design: time 24 hrs, dose 25 nmol/kg, route sc; settings: in vivo
Mus musculus [3] = assay: Antidiabetic activity in male […] assessed as reduction in body weight at 30 nmol/kg, sc administered twice daily for 3 weeks; assay type: functional; design: scale not given: the % may be the effect or the level left
Mus musculus [4] = assay: Antidiabetic activity in male db/db mouse assessed as improvement in glucose tolerance at 30 nmol/kg, sc administered twice daily for 35 days; assay type: functional, organism-based; settings: time 35.0 day
Mus musculus [5] = assay: Antidiabetic activity in male db/db mouse assessed as significant reduction in body weight gain at 30 nmol/kg, sc administered twice daily for 35 days; assay type: functional, organism-based; settings: time 35.0 day
[6] = Toxicity in male […] assessed as normalization of hepatic lipid content at 30 nmol/kg, sc administered twice daily for 3 weeks; assay type: organism-based; settings: in vivo, 504 h
Mus musculus [7] = assay: Antidiabetic activity in male DIO mouse assessed as reduction in acute food intake at 10 nmol/kg, sc measured at 0 to 2 hrs post administration; assay type: functional, organism-based
Mus musculus [8] = assay: Antidiabetic activity in male DIO mouse assessed as decrease in cumulative food intake at 100 nmol/kg, sc administered twice daily for 7 days; assay type: functional, organism-based; settings: time 7.0 day
Mus musculus [9] = assay: Antidiabetic activity in male […] assessed as increase in plasma FGF21 level at 30 nmol/kg, sc administered twice daily for 3 weeks; assay type: functional, organism-based
Mus musculus [10] = assay: Antidiabetic activity in 2 hrs fasted male C57BL/6J mouse at 10 to 30 nmol/kg, ip administered at 0 mins in presence of somatostatin at 10 mg/kg, sc administered at -30 mins and measured by oral glucose tolerance test; assay type: functional, organism-based; settings: dose 10-30 nmol/kg
[11] = Cmax in male Sprague-Dawley rat at 25 nmol/kg, iv administered as single dose and measured after 24 hrs by LC-MS/MS analysis; assay type: ADME, organism-based; design: dose 25 nmol/kg, time 24 hrs, route iv; settings: in vivo
[12] = Toxicity in male DIO mouse assessed as change in liver AST level at 100 nmol/kg, sc administered twice daily for 7 days; assay type: organism-based; settings: in vivo, 168 h, time 7 day
Rattus norvegicus = assay: Antidiabetic activity in overnight fasted male Sprague-Dawley rat assessed as reduction in food intake at 300 nmol/kg, ip; assay type: functional; design: scale not given: the % may be the effect or the level left
Mus musculus [13] = assay: Antidiabetic activity in male […] assessed as decrease in serum triglycerides level at 30 nmol/kg, sc administered twice daily for 3 weeks; assay type: functional, organism-based
[14] = Toxicity in male db/db mouse assessed as change in Cre level at 30 nmol/kg, sc administered twice daily for 35 days; assay type: organism-based; settings: in vivo, 840 h, time 35 day
Mus musculus [15] = assay: Antidiabetic activity in db/db mouse assessed as reduction in plasma insulin level at 10 nmol/kg, ip pretreated with compound and followed by glucose challenge and measured by oral glucose tolerance test; assay type: functional, organism-based
[16] = Toxicity in male db/db mouse assessed as change in liver AST level at 30 nmol/kg, sc administered twice daily for 35 days; assay type: organism-based; settings: in vivo, 840 h, time 35 day
[17] = Toxicity in male db/db mouse assessed as change in serum amylase level at 30 nmol/kg, sc administered twice daily for 35 days; assay type: organism-based; settings: in vivo, 840 h, time 35 day
[18] = AUC (infinity) in male Sprague-Dawley rat at 25 nmol/kg, iv administered as single dose and measured after 24 hrs by LC-MS/MS analysis; assay type: ADME, organism-based; design: time 24 hrs, dose 25 nmol/kg, route iv; settings: in vivo
[19] = Toxicity in male DIO mouse assessed as change in BUN at 100 nmol/kg, sc administered twice daily for 7 days; assay type: organism-based; settings: in vivo, 168 h, time 7 day
Mus musculus [20] = assay: Antidiabetic activity in non-fasted male db/db mouse assessed as reduction in glucose level at 10 to 100 nmol/kg, sc; assay type: functional, organism-based; settings: dose 10-100 nmol/kg, DDE = dose-dependent effect
[21] = biological target: Glucagon-like peptide 1 receptor (Homo sapiens, UniProt P43220); assay: Agonist activity at human GLP-1R expressed in HEK293 cells incubated for 30 mins and assessed as increase in cAMP accumulation measured by HTRF assay; assay type: functional, cell-based
Mus musculus [22] = assay: Antidiabetic activity in male […] assessed as reduction in fat mas at 30 nmol/kg, sc administered twice daily for 3 weeks; assay type: functional, organism-based
[23] = Toxicity in male DIO mouse assessed as change in Cre at 100 nmol/kg, sc administered twice daily for 7 days; assay type: organism-based; settings: in vivo, 168 h, time 7 day
Mus musculus [24] = assay: Antidiabetic activity in male DIO mouse assessed as decrease in fasted blood glucose at 100 nmol/kg, sc administered twice daily for 7 days; assay type: functional, organism-based; settings: time 7.0 day
[25] = Toxicity in overnight fasted male Sprague-Dawley rat assessed as induction of Pica behaviour by measuring kaolin intake at 10 to 300 nmol/kg, ip; settings: in vivo, dose 10-300 nmol/kg

Chain of Glucagon-like peptide 1 receptor (P43220 whole entry): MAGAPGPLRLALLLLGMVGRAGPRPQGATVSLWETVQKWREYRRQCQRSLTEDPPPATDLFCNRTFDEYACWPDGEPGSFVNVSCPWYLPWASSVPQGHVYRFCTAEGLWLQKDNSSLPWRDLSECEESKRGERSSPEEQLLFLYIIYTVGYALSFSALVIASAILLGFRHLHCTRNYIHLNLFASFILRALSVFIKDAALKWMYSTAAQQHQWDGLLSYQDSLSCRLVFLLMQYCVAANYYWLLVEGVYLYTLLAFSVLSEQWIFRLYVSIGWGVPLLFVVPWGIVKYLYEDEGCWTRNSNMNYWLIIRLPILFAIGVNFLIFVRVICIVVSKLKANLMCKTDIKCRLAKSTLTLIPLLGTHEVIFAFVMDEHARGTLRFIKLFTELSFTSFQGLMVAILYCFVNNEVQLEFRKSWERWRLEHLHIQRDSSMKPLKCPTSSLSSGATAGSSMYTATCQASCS

CCCCCCCCCCCCCCCC(=O)N[C@@H](CCC(=O)NCCCC[C@H](NC(=O)[C@H](Cc1ccc(O)cc1)NC(=O)[C@H](CCCCN)NC(=O)[C@H](CO)NC(=O)[C@@H](NC(=O)[C@H](CC(=O)O)NC(=O)[C@H](CC(N)=O)NC(=O)[C@@H](NC(=O)[C@H](Cc1ccc(O)cc1)NC(=O)[C@@H](NC(=O)CNC(=O)[C@H](CCC(N)=O)NC(=O)[C@@H](CO)NC(=O)[C@@H](N)Cc1c[nH]cn1)[C@@H](C)O)[C@@H](C)O)C(C)C)C(=O)N[C@@H](CC(=O)O)C(=O)N[C@@H](CO)C(=O)N[C@@H](CCCNC(=N)N)C(=O)N[C@@H](CCCNC(=N)N)C(=O)N[C@@H](C)C(=O)N[C@@H](CCC(N)=O)C(=O)N[C@@H](CC(=O)O)C(=O)N[C@@H](Cc1ccccc1)C(=O)N[C@H](C(=O)N[C@@H](CCC(=O)O)C(=O)N[C@@H](Cc1c[nH]c2ccccc12)C(=O)N[C@@H](CC(C)C)C(=O)N[C@@H](CCCCN)C(=O)N[C@@H](CC(N)=O)C(=O)NCC(=O)NCC(=O)N1CCC[C@H]1C(=O)N[C@@H](CO)C(=O)N[C@@H](CO)C(=O)NCC(=O)N[C@@H](C)C(=O)N1CCC[C@H]1C(=O)N1CCC[C@H]1C(=O)N1CCC[C@H]1C(=O)N[C@@H](CO)C(N)=O)[C@@H](C)CC)C(=O)O
Activity (Mus musculus [1]): Active
Cmax [2]: 519 ng/mL
Activity (Mus musculus [3]): 28.7%
Activity (Mus musculus [4]): Active
Activity (Mus musculus [5]): Active
Activity [6]: Non-Toxic
Activity (Mus musculus [7]): Active
Activity (Mus musculus [8]): Active
Activity (Mus musculus [9]): Active
Activity (Mus musculus [10]): Active
Cmax [11]: 1510 ng/mL
Activity [12]: Non-Toxic
Activity (Rattus norvegicus): 33%
Activity (Mus musculus [13]): Active
Activity [14]: Non-Toxic
Activity (Mus musculus [15]): Active
Activity [16]: Non-Toxic
Activity [17]: Non-Toxic
AUC(0-inf) [18]: 4200 ng·h/mL
Activity [19]: Non-Toxic
Activity (Mus musculus [20]): Dde
EC50 [21]: 0.031 nM
Activity (Mus musculus [22]): Active
Activity [23]: Non-Toxic
Activity (Mus musculus [24]): Active
Activity [25]: Non-Toxic
